# Results: patent US5770573A, “CS-1 peptidomimetics, compositions and methods of using the same” (Cytel Corporation, priority 1995, dated 1998)
# Square brackets hold non-standard residues; d marks the D form. Peptide text beside a SMILES is read from it. * marks the point of attachment. Biotin = O=C1N[C@H]2[C@H](CS[C@H]2CCCCC(=O)*)N1; Cya = N[C@@H](CS(=O)(=O)O)C(=O)O; Brosyl = O=S(=O)(c1ccc(Br)cc1)*; Cha = N[C@@H](CC1CCCCC1)C(=O)O; Isonicotinoyl = O=C(c1ccncc1)*; Tle = CC(C)(C)[C@H](N)C(=O)O; Piperidide = C1CCN(*)CC1; Nva = CCC[C@H](N)C(=O)O; NHDecyl = CCCCCCCCCCN*; PhAc = O=C(Cc1ccccc1)*; Inp = O=C(O)C1CCNCC1; NHBn = c1ccc(CN*)cc1; OBn = c1ccc(CO*)cc1; Ahx = NCCCCCC(=O)O; Sar = CNCC(=O)O
# Target: VLA-4 (Homo sapiens, UniProt P05556+P13612)
# Sequence (P13612 34-1032): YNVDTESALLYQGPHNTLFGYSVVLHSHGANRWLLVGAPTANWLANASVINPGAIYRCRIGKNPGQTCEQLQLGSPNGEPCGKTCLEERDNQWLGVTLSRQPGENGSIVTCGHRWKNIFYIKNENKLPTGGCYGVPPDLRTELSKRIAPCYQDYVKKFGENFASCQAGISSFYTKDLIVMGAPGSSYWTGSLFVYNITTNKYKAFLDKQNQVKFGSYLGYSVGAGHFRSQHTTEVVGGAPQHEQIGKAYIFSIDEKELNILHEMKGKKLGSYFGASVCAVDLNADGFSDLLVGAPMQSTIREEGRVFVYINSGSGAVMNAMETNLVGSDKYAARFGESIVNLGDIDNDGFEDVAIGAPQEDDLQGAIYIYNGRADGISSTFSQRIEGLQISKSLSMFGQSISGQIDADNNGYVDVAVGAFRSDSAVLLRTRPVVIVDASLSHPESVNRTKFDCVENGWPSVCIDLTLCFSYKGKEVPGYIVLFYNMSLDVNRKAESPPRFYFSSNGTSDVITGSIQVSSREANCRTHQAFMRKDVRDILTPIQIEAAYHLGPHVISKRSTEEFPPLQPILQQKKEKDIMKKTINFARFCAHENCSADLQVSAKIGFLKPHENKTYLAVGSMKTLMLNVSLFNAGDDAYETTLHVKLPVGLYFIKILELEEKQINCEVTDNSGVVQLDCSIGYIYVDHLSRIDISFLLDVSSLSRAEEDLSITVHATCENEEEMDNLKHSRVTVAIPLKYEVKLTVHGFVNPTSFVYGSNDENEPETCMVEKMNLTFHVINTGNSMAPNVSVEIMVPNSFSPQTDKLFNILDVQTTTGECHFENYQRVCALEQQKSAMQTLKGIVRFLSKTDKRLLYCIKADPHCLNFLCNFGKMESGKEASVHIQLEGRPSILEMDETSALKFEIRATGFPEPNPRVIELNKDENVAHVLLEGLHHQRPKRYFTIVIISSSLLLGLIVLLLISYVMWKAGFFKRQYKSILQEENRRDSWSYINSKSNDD
# Sequence (P05556 21-798): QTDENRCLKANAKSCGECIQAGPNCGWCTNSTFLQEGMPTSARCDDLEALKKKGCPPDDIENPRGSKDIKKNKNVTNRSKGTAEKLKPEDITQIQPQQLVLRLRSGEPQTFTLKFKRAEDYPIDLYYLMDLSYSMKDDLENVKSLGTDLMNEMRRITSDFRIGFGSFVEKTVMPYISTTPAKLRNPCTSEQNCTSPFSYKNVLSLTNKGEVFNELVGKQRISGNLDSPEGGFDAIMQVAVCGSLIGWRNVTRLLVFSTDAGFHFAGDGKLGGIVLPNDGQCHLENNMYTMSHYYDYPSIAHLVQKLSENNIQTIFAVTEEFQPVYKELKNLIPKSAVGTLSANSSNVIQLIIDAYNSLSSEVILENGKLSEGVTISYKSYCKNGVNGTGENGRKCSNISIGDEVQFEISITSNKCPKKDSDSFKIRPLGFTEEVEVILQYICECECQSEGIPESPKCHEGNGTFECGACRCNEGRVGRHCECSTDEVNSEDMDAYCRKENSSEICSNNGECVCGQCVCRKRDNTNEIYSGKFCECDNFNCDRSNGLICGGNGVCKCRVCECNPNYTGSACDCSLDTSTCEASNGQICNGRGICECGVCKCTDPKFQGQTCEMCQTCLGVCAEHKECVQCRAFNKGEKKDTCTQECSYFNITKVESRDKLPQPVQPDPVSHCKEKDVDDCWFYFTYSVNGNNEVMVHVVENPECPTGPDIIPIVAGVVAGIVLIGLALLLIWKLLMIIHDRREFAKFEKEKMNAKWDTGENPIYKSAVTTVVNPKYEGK
# Assay: In vitro binding inhibition of 51Cr-labeled Jurkat cells to solid phase-bound CS-1 compound (SEQ ID NO:1)
# Assay type: cell-based
# Parameters: inflammatory cells that contain the VLA-4 receptor [Jurkat cells; host or cells: Jurkat (human T lymphoblastic line)
# Settings: not given
# Description: Binding inhibition is measured here as a concentration of compound that inhibits one-half the binding between a standard number of Jurkat cells and a standard amount of CS-1 compound bound to the surface of a microtiter plate well. Those concentrations are conveniently expressed as IC50 values, smaller numbers indicating a lower concentration required to inhibit 50 percent binding and therefore greater potency. Further specifics of this assay are provided hereinafter.
# Jurkat cells (ATCC TIB 152), a human T lymphoblastic line, labeled with ^51 chromium were used to assay in vitro binding inhibition provided by various compounds discussed herein.
# The plates were prepared as follows: The 25-mer CS-1 compound (SEQ ID NO:1) dissolved at 0.5-1 μg/ml in a buffer of 0.1M NaHCO3 at pH 9.5 that also contained 10 μg/ml of bovine serum albumin (BSA) or a conjugate of the CS-1 compound linked to […] (CS-1-OVA) dissolved at 1-2.5 μg/ml in the same buffer was used as the substrate. Each well of the microtiter plates was coated with 50 μl of substrate or buffer alone for controls. The wells were permitted to dry out completely and were then rinsed twice with PBS at pH 7.4. Non-specific binding sites of each well were then blocked using 200 μl per well of RPMI/1 percent BSA for two hours at room temperature.
# Jurkat cells (3-5×10^6 cells) were placed into a 15 ml Falcon™ round-bottom tube with a cap. The tube was centrifuged, and the extra medium was then removed.
# Two hundred microliters of a ^51 Cr labeling solution were added to the centrifuged cells and maintained in contact with the cells for 90-120 minutes in a warm room. […] Longer contact times provide a greater amount of labeling but lower cell viability.
# The labeled cells are washed with (i) complete medium, (ii) 1 mM EDTA/PBS and then (iii) RPM1/1 percent BSA free of serum components. The cells are centrifuged after each washing. The cells are finally resuspended in serum-free RPMI/1 percent BSA at a concentration of 1×10^6 viable cells/ml, which provides a concentration that is diluted by one-half in the assay.
# Inhibitor compounds are prepared as stock solutions at 20 mg/ml in DMSO in 1.5 ml cryogenic screwcap vials, and were stored at -70° C. Using Flow™ round-bottom or V-bottom microtiter plates, the inhibitor compounds were prepared at twice the assay concentration in RPMI/1 percent BSA at 60 μl/well.
# Four initial dilutions were typically used.
# The ^51 Cr-labeled cells ([…] at 60 μl/well) were then admixed with the diluted compound solutions. The admixtures were maintained at room temperature (about 22° C.) for 30 minutes.
# One hundred microliters of each inhibitor compound/cell admixture were transferred to the substrate-coated wells. This was done in triplicate for each dilution. The resulting plates were incubated for 30 minutes at 37° C. and then washed gently three times with RPMI/1 percent BSA at 200 μl/well. Binding was observed microscopically, particularly after the second wash.
# The bound cells were then lysed by the addition of a 0.5 percent solution of sodium dodecylsulfate in water at 100 μl/well. The resulting solutions were then processed for counting and calculation of IC50 values following usual procedures.
# The data of Table 1 are normalized to the binding of SEQ ID NO: 3. […] Multiple assays for the same compound were averaged.
Relative Potency,Relative Potency (prodrug compound),Structure (SMILES)
228,,CC(C)C[C@H](NC(=O)c1ccncc1)C(=O)N[C@@H](CC(=O)O)C(=O)N[C@@H](Cc1ccccc1)C(=O)N1CCC[C@@H]1C(N)=O [951.20] (Isonicotinoyl-LDF[dP]-NH2)
5.63,,CC[C@H](C)[C@H](N)C(=O)N[C@@H](CC(C)C)C(=O)N[C@@H](CC(=O)O)C(=O)N[C@@H](Cc1ccccc1)C(=O)N1CCC[C@@H]1C(N)=O [896.26] (H-ILDF[dP]-NH2)
16.9,,CC(C)C[C@H](NC(=O)[C@@H](N)Cc1ccccc1)C(=O)N[C@@H](CC(=O)O)C(=O)N[C@@H](Cc1ccccc1)C(=O)N1CCC[C@@H]1C(N)=O [896.27] (H-FLDF[dP]-NH2)
13,,CC(C)C[C@H](NC(=O)c1ccccn1)C(=O)N[C@@H](CC(=O)O)C(=O)N[C@H](C(=O)N1CCC[C@@H]1C(N)=O)C(C)C [896.54]
.08,,CC[C@H](C)[C@H](N)C(=O)N[C@@H](Cc1ccccc1)C(=O)N[C@@H](CC(=O)O)C(=O)N[C@H](C(=O)N1CCC[C@H]1C(N)=O)C(C)C [926.07] (H-IFDVP-NH2)
.63,,CC(C)C[C@H](NS(=O)(=O)c1ccc(Br)cc1)C(=O)N[C@@H](CC(=O)O)C(=O)N[C@@H](Cc1ccccc1)C(=O)N1CCC[C@@H]1C(N)=O [951.10] (Brosyl-LDF[dP]-NH2)
1.83,,CC[C@@H](C)[C@@H](N)C(=O)N[C@@H](CC(C)C)C(=O)N[C@@H](CC(=O)O)C(=O)N[C@H](C(=O)N1CCC[C@@H]1C(N)=O)C(C)C [926.03]
.34,,CCC[C@H](NC(=O)[C@H](CC(=O)O)NC(=O)[C@H](CC(C)C)NC(=O)[C@@H](N)[C@@H](C)CC)C(=O)N1CCC[C@H]1C(N)=O [926.16] (H-ILD[Nva]P-NH2)
1.99,,CC[C@H](C)[C@H](N)C(=O)N[C@@H](CC(C)C)C(=O)N[C@@H](CC(=O)O)C(=O)N[C@@H](Cc1ccccc1)C(=O)N1CCC[C@H]1C(N)=O [926.12] (H-ILDFP-NH2)
5.01,,Cc1ccc(C(=O)N[C@@H](CC(C)C)C(=O)N[C@@H](CC(=O)O)C(=O)N[C@H](C(=O)N2CCC[C@@H]2C(N)=O)C(C)C)cc1C [896.37]
.13,,CCC[C@H](NC(=O)[C@@H](N)[C@@H](C)CC)C(=O)N[C@@H](CC(=O)O)C(=O)N[C@H](C(=O)N1CCC[C@H]1C(N)=O)C(C)C [926.10] (H-I[Nva]DVP-NH2)
1.41,,CC[C@H](C)[C@H](N)C(=O)N[C@@H](CC1CCCCC1)C(=O)N[C@@H](CC(=O)O)C(=O)N[C@H](C(=O)N1CCC[C@@H]1C(N)=O)C(C)C [896.32] (H-I[Cha]DV[dP]-NH2)
3.13,,Cc1cccc(C)c1C(=O)N[C@@H](CC(C)C)C(=O)N[C@@H](CC(=O)O)C(=O)N[C@H](C(=O)N1CCC[C@@H]1C(N)=O)C(C)C [896.36]
.21,,CC[C@H](C)[C@H](N)C(=O)N[C@@H](CC(C)C)C(=O)N[C@@H](CC(=O)O)C(=O)N[C@H](C(=O)N1CCC[C@H]1C(N)=O)[C@@H](C)CC [926.17] (H-ILDIP-NH2)
5.01,,CC(C)CCC(=O)N[C@@H](CC(C)C)C(=O)N[C@@H](CC(=O)O)C(=O)N[C@H](C(=O)N1CCC[C@@H]1C(N)=O)C(C)C [896.47]
,74.5,CC(C)C[C@H](NC(=O)[C@H](Cc1ccccc1)NC(=O)CCCCCNC(=O)CCCC[C@@H]1SC[C@@H]2NC(=O)N[C@@H]21)C(=O)N[C@@H](CC(=O)O)C(=O)N[C@@H](Cc1ccccc1)C(=O)N1CCC[C@@H]1C(N)=O [951.13] ({Biotin-Ahx}-FLDF[dP]-NH2)
3.29,,CC(C)C[C@H](NC(=O)C(C)(C)C)C(=O)N[C@@H](CC(=O)O)C(=O)N[C@H](C(=O)N1CCC[C@H]1C(N)=O)C(C)C [926.01]

# Continued, compound first:
Structure (SMILES),Relative Potency,Relative Potency (prodrug compound)
CC(C)C[C@H](NC(=O)Cc1ccc(O)c(O)c1)C(=O)N[C@@H](CC(=O)O)C(=O)N[C@@H](Cc1ccccc1)C(=O)N1CCCCC1 [1019.01],81.4,
CC(C)CN(CCCc1ccccc1)C(=O)N[C@@H](CC(=O)O)C(=O)N[C@@H](Cc1ccccc1)C(=O)N1CCCCC1 [1027.02],0,
CC[C@H](C)[C@H](N)C(=O)N[C@@H](CC(C)C)C(=O)N[C@@H](CC(=O)O)C(=O)N[C@H](C(=O)N1CCC[C@H]1C(=O)O)C(C)C [886.05] (H-ILDVP-OH),2,
CC[C@H](C)[C@H](N)C(=O)N[C@@H](CC(C)C)C(=O)N[C@@H](CC(=O)O)C(=O)N[C@H](C(=O)N1CCC[C@H]1C(N)=O)C(C)C [886.03],1.55,
CC(C)CN(CC(C)C)C(=O)N[C@@H](CC(=O)O)C(=O)N[C@H](C(=O)N1CCCCC1)c1ccccc1 [1027.01],.5,
CC(C)CN1C(=O)C(NC(=O)N[C@@H](CC(=O)O)C(=O)N[C@@H](Cc2ccccc2)C(=O)N2CCC[C@@H]2C(N)=O)Cc2ccccc21 (some centres unmarked) [1014.01],1.22,
CC(C)C[C@H](N)C(=O)N[C@@H](CC(=O)O)C(=O)N[C@@H](Cc1ccccc1)C(=O)N1CCCCC1 [1047.09] (H-Leu-Asp-Phe-Piperidide),0.01,

# Same assay, conditions: binding inhibition potency relative to standard compound of SEQ ID NO:3 = 1 (normalized IC50); about one-tenth or less assigned zero
row,Structure (SMILES),Relative Potency
1,CC(C)C[C@H](NC(=O)Cc1ccccc1)C(=O)N[C@@H](CC(=O)O)C(=O)NCc1ccccc1 [997.02] (PhAc-Leu-Asp-NHBn),18.8
2,O=C(O)CC(C(=O)N[C@@H](Cc1ccccc1)C(=O)N1CCCCC1)N1CC[C@H](NC(=O)Cc2ccccc2)C1=O (some centres unmarked) [1057.01],.88
3,CC(C)C[C@H](NC(=O)Cc1ccccc1)C(=O)N[C@@H](CC(=O)O)C(=O)N[C@@H](Cc1ccccc1)C(=O)N(C)CC(N)=O [1190.04] (PhAc-LDF[Sar]-NH2),196
4,CC(C)C[C@H](NC(=O)Cc1ccccc1)C(=O)N[C@@H](CC(=O)O)C(=O)N[C@H](C(=O)N1CCC[C@@H]1C(N)=O)C(C)(C)C [896.56] (PhAc-LD[Tle][dP]-NH2),1.72
5,CC(C)C[C@H](NC(=O)Cc1ccccc1)C(=O)N[C@@H](CC(=O)O)C(=O)N[C@@H](Cc1ccccc1)C(=O)N1CCS(=O)(=O)CC1 [1111.03],1010
6,CC(C)C[C@H](NC(=O)Cc1ccccc1)C(=O)N[C@@H](CC(=O)O)C(=O)N[C@@H](Cc1ccccc1)C(=O)N1CCCCC1 [951.14] (PhAc-Leu-Asp-Phe-Piperidide),239
7,CC(C)C[C@H](NC(=O)Cc1ccccc1)C(=O)N[C@@H](CC(=O)O)C(=O)N[C@@H](Cc1ccccc1)C(=O)N1CCC(C(N)=O)CC1 [1111.05] (PhAc-LDF[Inp]-NH2),942
8,CC(C)C[C@H](NC(=O)Cc1ccccc1)C(=O)N[C@@H](CC(=O)O)C(=O)N[C@@H](Cc1ccccc1)C(=O)N1CCN(CCOCCO)CC1 [1111.07],510
9,CC(C)C[C@H](NC(=O)Cc1ccccc1)C(=O)N[C@@H](CC(=O)O)C(=O)N[C@@H](Cc1ccccc1)C(=O)N1CCN(CC(N)=O)CC1 [1111.09],324
10,CC(C)C[C@H](NC(=O)Cc1ccccc1)C(=O)N[C@@H](CS(=O)(=O)O)C(=O)N[C@@H](Cc1ccccc1)C(=O)N1CCCCC1 [1026.06] (PhAc-Leu-[Cya]-Phe-Piperidide),0
11,CC(C)C[C@H](NC(=O)Cc1ccccc1)C(=O)N[C@@H](CC(=O)O)C(=O)NC1Cc2ccccc2NC1=O (some centres unmarked) [997.08],23.5
12,CC(C)C[C@H](NC(=O)/C=C/c1ccccc1)C(=O)N[C@@H](CC(=O)O)C(=O)N[C@H](C(=O)N1CCC[C@@H]1C(N)=O)C(C)C [896.41],1.97

# Same assay, conditions: relative to SEQ ID NO:3 = 1; potency before the prodrug compound is enzymatically converted to an active form
row,Structure (SMILES),Relative Potency (prodrug compound)
1,CCCCCCCCCCNC(=O)[C@@H]1CCCN1C(=O)[C@H](Cc1ccccc1)NC(=O)[C@H](CC(=O)O)NC(=O)[C@H](CC(C)C)NC(=O)Cc1ccccc1 [1068.04] (PhAc-LDFP-NHDecyl),2.13
2,CC(C)C[C@H](NC(=O)Cc1ccccc1)C(=O)N[C@@H](CC(=O)OCc1ccccc1)C(=O)N[C@@H](Cc1ccccc1)C(=O)N1CCC[C@@H]1C(N)=O [1068.07] (PhAc-LD(OBn)F[dP]-NH2),0
